{"source": "ChEMBL document CHEMBL4811298", "about": "“Discovery of novel class of histone deacetylase inhibitors as potential anticancer agents” (Bioorg Med Chem, 2021)", "key": {"[1]": {"tested_on": "MCF7", "assay": "Induction of apoptosis in human MCF7 cells assessed as downregulation of c-Myc gene expression at 1 uM measured after 24 hrs whole transcriptome analysis", "assay_type": "functional, cell-based"}, "[2]": {"biological_target": "Cytochrome P450 3A4 (Homo sapiens, UniProt P08684)", "sequence (P08684 whole entry)": "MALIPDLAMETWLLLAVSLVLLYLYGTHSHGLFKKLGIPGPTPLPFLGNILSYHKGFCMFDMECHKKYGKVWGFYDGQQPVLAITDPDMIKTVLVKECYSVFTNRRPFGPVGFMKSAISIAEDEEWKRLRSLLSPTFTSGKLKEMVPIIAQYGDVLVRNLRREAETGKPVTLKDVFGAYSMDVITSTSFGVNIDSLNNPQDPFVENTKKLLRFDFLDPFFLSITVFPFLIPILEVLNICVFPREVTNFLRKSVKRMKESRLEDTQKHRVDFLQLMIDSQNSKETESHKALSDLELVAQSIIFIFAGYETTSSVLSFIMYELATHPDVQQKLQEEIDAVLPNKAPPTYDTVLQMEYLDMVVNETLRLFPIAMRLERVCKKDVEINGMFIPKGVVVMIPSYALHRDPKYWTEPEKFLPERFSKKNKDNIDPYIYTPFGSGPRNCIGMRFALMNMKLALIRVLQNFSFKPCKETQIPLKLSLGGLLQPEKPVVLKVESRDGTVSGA", "assay": "Inhibition of human CYP3A4 expressed in insect supersomes assessed as reduction in […] formation using midazolam as substrate measured after 30 mins in presence of NADPH by LC-MS/MS analysis", "assay_type": "ADME"}, "[3]": {"biological_target": "Cytochrome P450 2D6 (Homo sapiens, UniProt P10635)", "sequence (P10635 whole entry)": "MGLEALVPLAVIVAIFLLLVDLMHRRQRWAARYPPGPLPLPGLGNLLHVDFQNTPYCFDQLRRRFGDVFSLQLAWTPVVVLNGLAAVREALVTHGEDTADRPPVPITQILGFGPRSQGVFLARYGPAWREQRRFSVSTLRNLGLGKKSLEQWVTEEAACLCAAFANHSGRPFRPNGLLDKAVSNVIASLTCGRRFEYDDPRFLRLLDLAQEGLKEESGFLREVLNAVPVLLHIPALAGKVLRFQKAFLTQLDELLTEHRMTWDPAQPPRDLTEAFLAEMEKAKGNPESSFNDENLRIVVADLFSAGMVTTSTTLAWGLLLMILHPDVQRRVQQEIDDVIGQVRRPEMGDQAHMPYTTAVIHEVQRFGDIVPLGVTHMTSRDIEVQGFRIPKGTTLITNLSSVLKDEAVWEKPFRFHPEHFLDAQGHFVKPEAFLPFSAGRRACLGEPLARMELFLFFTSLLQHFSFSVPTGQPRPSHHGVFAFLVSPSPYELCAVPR", "assay": "Inhibition of human CYP2D6 expressed in insect supersomes assessed as reduction in AHMC formation using AMMC as substrate measured after 40 mins in presence of NADPH by fluorescence based analysis", "assay_type": "ADME"}, "[4]": {"biological_target": "Cytochrome P450 2C9 (Homo sapiens, UniProt P11712)", "sequence (P11712 whole entry)": "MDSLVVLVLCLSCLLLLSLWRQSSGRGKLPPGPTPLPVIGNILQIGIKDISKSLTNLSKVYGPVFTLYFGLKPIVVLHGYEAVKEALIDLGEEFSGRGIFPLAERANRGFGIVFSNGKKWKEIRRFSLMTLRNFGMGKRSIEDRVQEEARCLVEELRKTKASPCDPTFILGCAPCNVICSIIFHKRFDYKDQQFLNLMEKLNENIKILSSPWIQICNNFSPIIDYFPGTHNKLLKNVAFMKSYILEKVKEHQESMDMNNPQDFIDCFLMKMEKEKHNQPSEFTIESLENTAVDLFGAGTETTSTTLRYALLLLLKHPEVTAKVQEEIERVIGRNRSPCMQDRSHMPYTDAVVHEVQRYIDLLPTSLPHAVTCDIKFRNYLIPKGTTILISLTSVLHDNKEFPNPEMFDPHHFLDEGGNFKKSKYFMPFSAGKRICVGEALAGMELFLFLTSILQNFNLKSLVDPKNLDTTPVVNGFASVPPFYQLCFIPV", "assay": "Inhibition of human CYP2C9-1 expressed in insect supersomes assessed as reduction in HFC formation using MFC as substrate measured after 30 mins in presence of NADPH by fluorescence based analysis", "assay_type": "ADME"}, "[5]": {"biological_target": "Histone deacetylase 1 (Homo sapiens, UniProt Q13547)", "sequence (Q13547 whole entry, the tested form may be a part)": "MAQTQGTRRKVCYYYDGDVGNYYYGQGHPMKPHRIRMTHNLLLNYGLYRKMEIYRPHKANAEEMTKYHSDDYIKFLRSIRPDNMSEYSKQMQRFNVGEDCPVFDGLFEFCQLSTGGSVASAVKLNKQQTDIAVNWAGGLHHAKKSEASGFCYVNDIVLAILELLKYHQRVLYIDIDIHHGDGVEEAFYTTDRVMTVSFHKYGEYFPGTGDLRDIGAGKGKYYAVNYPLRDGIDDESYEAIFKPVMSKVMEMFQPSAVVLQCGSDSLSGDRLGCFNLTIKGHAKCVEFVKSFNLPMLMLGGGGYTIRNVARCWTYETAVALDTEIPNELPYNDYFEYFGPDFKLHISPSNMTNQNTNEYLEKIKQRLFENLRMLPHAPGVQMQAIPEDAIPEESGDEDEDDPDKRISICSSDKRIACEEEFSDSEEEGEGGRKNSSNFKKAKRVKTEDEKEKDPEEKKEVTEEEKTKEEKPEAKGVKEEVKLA", "assay": "(§1) Inhibition of C-terminal FLAG/His-tagged human recombinant HDAC1 (1 to 482 residues) expressed in baculovirus-infected Sf9 cells assessed as reduction in 7-amino-4-methylcoumarin release using fluorogenic HDAC substrate 3 measured every 5 mins by fluorescence based analysis"}, "[6]": {"biological_target": "Histone deacetylase 2 (Homo sapiens, UniProt Q92769)", "sequence (Q92769 whole entry)": "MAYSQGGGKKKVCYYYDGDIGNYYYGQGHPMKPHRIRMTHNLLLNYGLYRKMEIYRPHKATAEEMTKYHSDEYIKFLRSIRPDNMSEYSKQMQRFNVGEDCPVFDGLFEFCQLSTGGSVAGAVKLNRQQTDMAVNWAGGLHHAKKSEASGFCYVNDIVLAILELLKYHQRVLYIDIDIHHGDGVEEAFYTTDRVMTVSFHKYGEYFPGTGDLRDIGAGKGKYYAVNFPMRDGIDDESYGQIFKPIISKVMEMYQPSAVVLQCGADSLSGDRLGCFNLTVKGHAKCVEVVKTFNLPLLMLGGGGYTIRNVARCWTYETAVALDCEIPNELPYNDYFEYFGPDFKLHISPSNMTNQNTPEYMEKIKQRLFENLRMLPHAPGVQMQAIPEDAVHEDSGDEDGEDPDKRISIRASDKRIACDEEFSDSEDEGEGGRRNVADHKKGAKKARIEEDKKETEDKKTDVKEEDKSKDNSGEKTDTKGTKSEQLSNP", "assay_type": "cell-based, Sf9"}, "[7]": {"biological_target": "Histone deacetylase 3/Nuclear receptor corepressor 2 (HDAC3/NCoR2) (Homo sapiens, UniProt O15379)", "assay": "as §1, with “His-tagged” for “FLAG/His-tagged”, “full length HDAC3” for “HDAC1”, “428 residues)/N-terminal GST-tagged human recombinant NCOR2 (395 to 489” for “482”"}, "[8]": {"biological_target": "Histone deacetylase 5 (Homo sapiens, UniProt Q9UQL6)", "sequence (Q9UQL6 whole entry)": "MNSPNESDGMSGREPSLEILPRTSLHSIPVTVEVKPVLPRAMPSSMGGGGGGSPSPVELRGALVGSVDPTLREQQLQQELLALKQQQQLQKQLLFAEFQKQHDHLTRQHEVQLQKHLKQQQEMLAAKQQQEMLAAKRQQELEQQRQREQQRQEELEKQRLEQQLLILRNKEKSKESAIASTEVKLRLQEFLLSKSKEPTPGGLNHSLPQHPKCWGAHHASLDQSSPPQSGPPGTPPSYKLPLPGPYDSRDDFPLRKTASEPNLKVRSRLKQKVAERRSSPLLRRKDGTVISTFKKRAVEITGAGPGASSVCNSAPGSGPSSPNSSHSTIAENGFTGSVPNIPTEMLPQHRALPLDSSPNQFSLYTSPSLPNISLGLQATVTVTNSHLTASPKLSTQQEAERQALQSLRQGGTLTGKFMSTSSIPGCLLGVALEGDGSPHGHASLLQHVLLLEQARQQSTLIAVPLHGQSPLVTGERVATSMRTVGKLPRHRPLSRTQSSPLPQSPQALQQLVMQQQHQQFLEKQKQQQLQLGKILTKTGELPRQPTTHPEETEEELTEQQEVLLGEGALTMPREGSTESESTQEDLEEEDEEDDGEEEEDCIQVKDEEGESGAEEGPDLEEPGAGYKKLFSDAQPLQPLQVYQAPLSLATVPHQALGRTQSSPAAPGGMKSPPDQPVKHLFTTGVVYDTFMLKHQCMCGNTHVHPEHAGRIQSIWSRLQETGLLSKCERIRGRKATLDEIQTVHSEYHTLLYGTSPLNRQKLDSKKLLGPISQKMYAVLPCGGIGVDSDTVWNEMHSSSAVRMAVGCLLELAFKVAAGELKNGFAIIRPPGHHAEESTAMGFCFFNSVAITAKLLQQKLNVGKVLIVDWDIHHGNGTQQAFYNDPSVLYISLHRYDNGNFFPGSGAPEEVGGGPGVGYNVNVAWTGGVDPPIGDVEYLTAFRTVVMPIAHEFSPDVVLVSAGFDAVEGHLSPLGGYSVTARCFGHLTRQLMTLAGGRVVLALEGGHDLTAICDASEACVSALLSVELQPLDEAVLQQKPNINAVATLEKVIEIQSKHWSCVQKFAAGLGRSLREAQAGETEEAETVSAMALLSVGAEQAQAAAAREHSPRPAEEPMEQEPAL", "assay": "Inhibition of N-terminal GST-tagged human recombinant full length HDAC5 expressed in baculovirus-infected Sf9 cells assessed as reduction in 7-amino-4-methylcoumarin release measured every 5 mins by fluorescence based analysis"}, "[9]": {"biological_target": "Histone deacetylase 9 (Homo sapiens, UniProt Q9UKV0)", "sequence (Q9UKV0 whole entry, the tested form may be a part)": "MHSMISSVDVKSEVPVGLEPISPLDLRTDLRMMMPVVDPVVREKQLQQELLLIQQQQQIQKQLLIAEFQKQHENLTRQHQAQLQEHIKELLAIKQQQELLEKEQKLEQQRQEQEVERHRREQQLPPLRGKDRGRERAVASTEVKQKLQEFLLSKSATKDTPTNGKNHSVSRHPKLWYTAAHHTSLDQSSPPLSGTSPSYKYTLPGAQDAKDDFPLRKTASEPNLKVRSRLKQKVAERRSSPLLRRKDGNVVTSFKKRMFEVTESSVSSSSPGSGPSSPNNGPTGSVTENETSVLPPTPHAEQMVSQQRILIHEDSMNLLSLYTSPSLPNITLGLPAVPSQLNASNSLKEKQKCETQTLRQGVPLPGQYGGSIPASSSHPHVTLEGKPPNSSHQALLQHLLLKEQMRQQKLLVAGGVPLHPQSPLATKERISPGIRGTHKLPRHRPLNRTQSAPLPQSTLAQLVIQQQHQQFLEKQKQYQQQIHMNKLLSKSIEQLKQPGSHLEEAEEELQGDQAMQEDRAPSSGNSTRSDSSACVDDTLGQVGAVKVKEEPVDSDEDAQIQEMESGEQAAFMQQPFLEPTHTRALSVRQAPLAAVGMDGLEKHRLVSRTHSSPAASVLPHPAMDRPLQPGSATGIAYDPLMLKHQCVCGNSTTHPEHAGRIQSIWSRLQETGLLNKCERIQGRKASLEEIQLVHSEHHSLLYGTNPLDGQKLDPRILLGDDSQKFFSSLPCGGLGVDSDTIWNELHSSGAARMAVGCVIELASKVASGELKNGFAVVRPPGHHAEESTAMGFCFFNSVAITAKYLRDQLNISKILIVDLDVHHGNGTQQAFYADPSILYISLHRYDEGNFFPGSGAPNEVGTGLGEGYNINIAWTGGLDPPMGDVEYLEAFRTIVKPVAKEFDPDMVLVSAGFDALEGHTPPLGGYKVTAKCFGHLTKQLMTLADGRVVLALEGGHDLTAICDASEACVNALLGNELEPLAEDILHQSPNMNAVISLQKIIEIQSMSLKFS", "assay": "Inhibition of C-terminal His-tagged human HDAC9 (604 to 1066 residues) expressed in baculovirus-infected Sf9 cells assessed as reduction in 7-amino-4-methylcoumarin release measured every 5 mins by fluorescence based analysis"}, "[10]": {"assay": "Downregulation of HDAC3 gene expression in human MCF7 cells at 3 uM incubated for 24 hrs by whole transcriptome analysis relative to control", "assay_type": "functional"}, "[11]": {"tested_on": "MCF7", "assay": "Antiproliferative activity against human MCF7 cells assessed as reduction in cell viability incubated for 48 hrs by SRB assay", "assay_type": "functional, cell-based", "conditions": "MCF7, 48 h"}, "[12]": {"tested_on": "A549", "assay": "Antiproliferative activity against human A549 cells assessed as reduction in cell viability incubated for 48 hrs by SRB assay", "assay_type": "functional, cell-based", "conditions": "A549, 48 h"}, "[13]": {"tested_on": "MCF7", "assay": "Induction of apoptosis in human MCF7 cells assessed as downregulation of c-Myc protein expression at 1 to 3 uM measured after 48 hrs western blot analysis", "assay_type": "functional, cell-based", "conditions": "dose 1-3 µM"}, "[14]": {"tested_on": "MCF7", "assay": "Induction of apoptosis in human MCF7 cells assessed as increase in caspase 3/7 activity at 1 to 3 uM measured after 48 hrs by ELISA", "assay_type": "functional, cell-based", "conditions": "dose 1-3 µM"}, "[15]": {"tested_on": "MCF7", "assay": "Induction of apoptosis in human MCF7 cells assessed as reduction in Bcl3 gene expression at 3 uM incubated for 24 hrs by whole transcriptome analysis", "assay_type": "functional, cell-based"}, "[16]": {"tested_on": "MCF7", "assay": "Induction of cell cycle arrest in human MCF7 cells assessed downregulation of CDK2 gene expression at 3 uM incubated for 24 hrs by whole transcriptome analysis", "assay_type": "functional, cell-based"}, "[17]": {"tested_on": "MCF7", "assay": "Induction of cell cycle arrest in human MCF7 cells assessed downregulation of CDK4 gene expression at 3 uM incubated for 24 hrs by whole transcriptome analysis", "assay_type": "functional, cell-based"}, "[18]": {"tested_on": "MCF7", "assay": "Induction of cell cycle arrest in human MCF7 cells assessed downregulation of CDK6 gene expression at 3 uM incubated for 24 hrs by whole transcriptome analysis", "assay_type": "functional, cell-based"}, "[19]": {"tested_on": "MCF7", "assay": "Downregulation of NFkB2 gene expression in human MCF7 cells at 3 uM incubated for 24 hrs by whole transcriptome analysis", "assay_type": "functional, cell-based"}, "[20]": {"tested_on": "MCF7", "assay": "Induction of cell cycle arrest in human MCF7 cells assessed downregulation of CDK1 gene expression at 3 uM incubated for 24 hrs by whole transcriptome analysis", "assay_type": "functional, cell-based"}, "[21]": {"tested_on": "MCF7", "assay": "Induction of cell cycle arrest in human MCF7 cells assessed downregulation of E2F1 gene expression at 3 uM incubated for 24 hrs by whole transcriptome analysis", "assay_type": "functional, cell-based"}, "[22]": {"species_on_record": "Homo sapiens", "assay": "(§2) Selectivity ratio of IC50 for inhibition of C-terminal His-tagged human recombinant full length HDAC3 (1 to 428 residues)/N-terminal GST-tagged human recombinant NCOR2 (395 to 489 residues) expressed in baculovirus-infected Sf9 cells to IC50 for inhibition of C-terminal FLAG/His-tagged human recombinant HDAC1 (1 to 482 residues) expressed in baculovirus-infected Sf9 cells"}, "[23]": {"species_on_record": "Homo sapiens", "assay": "(§3) Selectivity ratio of IC50 for inhibition of N-terminal GST-tagged/C-terminal His-tagged human recombinant HDAC4 (627 to 1084 residues) expressed in baculovirus-infected Sf9 cells to IC50 for inhibition of C-terminal FLAG/His-tagged human recombinant HDAC1 (1 to 482 residues) expressed in baculovirus-infected Sf9 cells"}, "[24]": {"species_on_record": "Homo sapiens", "assay": "Selectivity ratio of IC50 for inhibition of N-terminal GST-tagged human recombinant full length HDAC5 expressed in baculovirus-infected Sf9 cells to IC50 for inhibition of C-terminal FLAG/His-tagged human recombinant HDAC1 (1 to 482 residues) expressed in baculovirus-infected Sf9 cells"}, "[25]": {"species_on_record": "Homo sapiens", "assay": "Selectivity ratio of IC50 for inhibition of C-terminal His-tagged human HDAC9 (604 to 1066 residues) expressed in baculovirus-infected Sf9 cells to IC50 for inhibition of C-terminal FLAG/His-tagged human recombinant HDAC1 (1 to 482 residues) expressed in baculovirus-infected Sf9 cells"}, "[26]": {"species_on_record": "Homo sapiens", "assay": "as §2, with “6XHis-tagged” for “FLAG/His-tagged”, “full length HDAC2” for “HDAC1”, “488” for “482”"}, "[27]": {"species_on_record": "Homo sapiens", "assay": "as §3, with “6XHis-tagged” for “FLAG/His-tagged”, “full length HDAC2” for “HDAC1”, “488” for “482”"}, "[28]": {"species_on_record": "Homo sapiens", "assay": "Selectivity ratio of IC50 for inhibition of N-terminal GST-tagged human recombinant full length HDAC5 expressed in baculovirus-infected Sf9 cells to IC50 for inhibition of C-terminal 6XHis-tagged human recombinant full length HDAC2 (1 to 488 residues) expressed in baculovirus-infected Sf9 cells"}, "[29]": {"species_on_record": "Homo sapiens", "assay": "Selectivity ratio of IC50 for inhibition of N-terminal GST-tagged human HDAC7 (518 to end residues) expressed in baculovirus-infected Sf9 cells to IC50 for inhibition of C-terminal 6XHis-tagged human recombinant full length HDAC2 (1 to 488 residues) expressed in baculovirus-infected Sf9 cells"}, "[30]": {"species_on_record": "Homo sapiens", "assay": "Selectivity ratio of IC50 for inhibition of C-terminal His-tagged human HDAC9 (604 to 1066 residues) expressed in baculovirus-infected Sf9 cells to IC50 for inhibition of C-terminal 6XHis-tagged human recombinant full length HDAC2 (1 to 488 residues) expressed in baculovirus-infected Sf9 cells"}}, "note": "The source made the active and inactive calls. The calls are words filed in the database; no cut-off is given here.", "data": [{"compound": "N=C(NO)c1ccc2nc(-c3cccc(-c4cn5ccccc5n4)c3)[nH]c2c1", "values": [{"measurement": "Activity", "setting": "[1]", "result": "Active"}, {"measurement": "IC50", "setting": "[2]", "result": 233, "unit": "nM"}, {"measurement": "IC50", "setting": "[3]", "result": "> 10000", "unit": "nM"}, {"measurement": "IC50", "setting": "[4]", "result": "> 10000", "unit": "nM"}, {"measurement": "IC50", "setting": "[5]", "result": 550, "unit": "nM"}, {"measurement": "IC50", "setting": "[6]", "result": 400, "unit": "nM"}, {"measurement": "IC50", "setting": "[7]", "result": "> 10000", "unit": "nM"}, {"measurement": "IC50", "setting": "[8]", "result": "> 10000", "unit": "nM"}, {"measurement": "IC50", "setting": "[9]", "result": "> 10000", "unit": "nM"}, {"measurement": "fold change (FC)", "setting": "[10]", "result": 2.2}, {"measurement": "IC50", "setting": "[11]", "result": 2000, "unit": "nM"}, {"measurement": "IC50", "setting": "[12]", "result": 200, "unit": "nM"}, {"measurement": "Activity", "setting": "[13]", "result": "Active"}, {"measurement": "Activity", "setting": "[14]", "result": "Active"}, {"measurement": "Activity", "setting": "[15]", "result": "Active"}, {"measurement": "Activity", "setting": "[16]", "result": "Active"}, {"measurement": "Activity", "setting": "[17]", "result": "Active"}, {"measurement": "Activity", "setting": "[18]", "result": "Active"}, {"measurement": "inhibition", "setting": "[19]", "result": "Active"}, {"measurement": "Activity", "setting": "[20]", "result": "Active"}, {"measurement": "Activity", "setting": "[21]", "result": "Active"}, {"measurement": "Ratio IC50", "setting": "[22]", "result": "> 44"}, {"measurement": "Ratio IC50", "setting": "[23]", "result": "> 44"}, {"measurement": "Ratio IC50", "setting": "[24]", "result": "> 44"}, {"measurement": "Ratio IC50", "setting": "[25]", "result": "> 44"}, {"measurement": "Ratio IC50", "setting": "[26]", "result": "> 44"}, {"measurement": "Ratio IC50", "setting": "[27]", "result": "> 44"}, {"measurement": "Ratio IC50", "setting": "[28]", "result": "> 44"}, {"measurement": "Ratio IC50", "setting": "[29]", "result": "> 44"}, {"measurement": "Ratio IC50", "setting": "[30]", "result": "> 44"}]}]}
